Experimental data: ChEMBL document CHEMBL1201862, “PubChem BioAssay data set” (2004)
Calls of active or inactive are those of the source.

How the values were obtained:
DNA topoisomerase = DNA topoisomerase (Yersinia pestis, UniProt A0A2S9PM60); assay: Y. pestis Topo-I inhibitors, cleavage product readout, dose response, biochemical, cherry-pick (AID 588525)
[1] = target: T1, Probable nicotinate-nucleotide adenylyltransferase (Staphylococcus aureus (strain N315), UniProt P65502); format: functional, Staphylococcus aureus subsp. aureus N315;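 on IC50 Mean: confirmatory dose-response retesting of NadD inhibitor hits first found in an ultra-high-throughput screen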
T1 sequence (P65502 whole entry): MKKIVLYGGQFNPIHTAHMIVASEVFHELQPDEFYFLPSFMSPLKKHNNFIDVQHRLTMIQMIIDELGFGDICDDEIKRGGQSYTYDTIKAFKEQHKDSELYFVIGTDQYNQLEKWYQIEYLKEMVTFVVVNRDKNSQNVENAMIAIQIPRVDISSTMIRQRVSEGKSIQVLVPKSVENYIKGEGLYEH

[2] = target: T1, Probable nicotinate-nucleotide adenylyltransferase; format: functional, Staphylococcus aureus subsp. aureus N315; conditions: read-out: IC50_Mean
HeLa = assay: HeLa cell cytotoxicity, dose response, cytotoxicity control for MITF activator project, CellTiter-Glo luminescence, cherry-pick samples (AID 540259); format: functional, cell-based; conditions: Homo sapiens
[3] = target: E3 ubiquitin-protein ligase Mdm2 (Homo sapiens, UniProt Q00987); assay: enhancers of MDM2-luciferase reporter signal, concentration-effect titration, project on inhibitors of MDM2 ubiquitin ligase, cellular assay, luminescent readout, 384-well plate format (AID 1394); format: functional;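 further: MDM2 E3 inhibitors raise luminescence so EC50 is for signal enhancement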
E3 ubiquitin-protein ligase Mdm2, sequence (Q00987 whole entry): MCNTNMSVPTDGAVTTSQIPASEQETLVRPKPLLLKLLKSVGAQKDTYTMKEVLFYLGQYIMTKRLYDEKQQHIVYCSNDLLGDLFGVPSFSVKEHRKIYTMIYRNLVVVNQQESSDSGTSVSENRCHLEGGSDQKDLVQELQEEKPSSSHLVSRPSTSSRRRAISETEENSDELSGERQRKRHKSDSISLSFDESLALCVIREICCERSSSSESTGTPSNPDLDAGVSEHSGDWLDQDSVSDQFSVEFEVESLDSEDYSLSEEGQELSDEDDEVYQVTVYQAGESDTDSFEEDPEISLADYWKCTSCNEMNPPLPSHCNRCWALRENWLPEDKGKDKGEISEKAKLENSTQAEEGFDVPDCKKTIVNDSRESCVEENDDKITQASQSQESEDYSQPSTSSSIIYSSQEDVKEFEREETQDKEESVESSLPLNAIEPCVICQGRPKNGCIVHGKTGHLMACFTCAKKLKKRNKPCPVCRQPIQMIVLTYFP

[4] = target: Luciferin 4-monooxygenase (Photinus pyralis, UniProt P08659); assay: Counter Screen for Luciferase-based Assay Positives. [Related pubchem assays: 620, 618, 411 ]
Luciferin 4-monooxygenase, sequence (P08659 whole entry): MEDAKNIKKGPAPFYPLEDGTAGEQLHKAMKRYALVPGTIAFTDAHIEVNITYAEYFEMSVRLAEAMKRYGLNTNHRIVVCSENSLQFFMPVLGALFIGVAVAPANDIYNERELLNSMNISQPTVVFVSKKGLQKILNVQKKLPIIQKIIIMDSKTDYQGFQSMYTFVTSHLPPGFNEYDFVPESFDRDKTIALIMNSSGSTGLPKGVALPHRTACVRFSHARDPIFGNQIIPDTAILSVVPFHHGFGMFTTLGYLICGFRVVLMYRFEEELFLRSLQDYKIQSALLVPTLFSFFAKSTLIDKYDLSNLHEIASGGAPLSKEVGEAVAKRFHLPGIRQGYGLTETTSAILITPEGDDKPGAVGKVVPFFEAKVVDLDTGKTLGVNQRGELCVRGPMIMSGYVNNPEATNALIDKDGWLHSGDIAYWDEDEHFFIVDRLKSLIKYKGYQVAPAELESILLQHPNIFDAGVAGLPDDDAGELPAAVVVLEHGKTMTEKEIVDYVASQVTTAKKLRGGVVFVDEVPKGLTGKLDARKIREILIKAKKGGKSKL

[5] = growth suppression of PTEN-null colon cells, dose response, cell-based, HCT116 PTEN knockout (AID 1047); format: functional;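 further: HCT116 colon tumor cells with PTEN knocked out; cells exposed to compound for 60 hours before readout; potency for loss of cell viability measured by luminescence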
HT-1080 = assay: cytotoxicity in HT1080 fibrosarcoma cells, cell-based, fluorescence readout (AID 620); format: functional; conditions: Homo sapiens
[6] = growth suppression of beta-catenin-knockout colon cells, dose response, cell-based, HCT116, human colon tumor (AID 1045); format: functional;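 further: HCT116 colon tumor cells with beta catenin knocked out; cells exposed to compound for 60 hours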
[7] = target: C-C chemokine receptor type 6 (Homo sapiens, UniProt P51684); assay: CCR6 receptor antagonists, dose response, cell-based, luminescent beta-arrestin readout (AID 504728); format: functional
C-C chemokine receptor type 6, sequence (P51684 whole entry): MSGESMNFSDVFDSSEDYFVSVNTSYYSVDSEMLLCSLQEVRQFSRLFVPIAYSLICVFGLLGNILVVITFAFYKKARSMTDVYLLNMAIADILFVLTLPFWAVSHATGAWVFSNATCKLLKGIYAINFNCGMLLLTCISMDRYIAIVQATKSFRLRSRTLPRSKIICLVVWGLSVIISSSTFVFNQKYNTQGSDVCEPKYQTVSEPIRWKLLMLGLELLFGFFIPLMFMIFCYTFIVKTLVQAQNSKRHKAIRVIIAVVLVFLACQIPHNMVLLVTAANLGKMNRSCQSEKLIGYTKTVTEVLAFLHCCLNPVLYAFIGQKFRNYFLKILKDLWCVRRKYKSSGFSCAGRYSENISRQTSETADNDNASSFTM

Beta-galactosidase = Beta-galactosidase (Escherichia coli, UniProt Q8VNN2); assay: beta-galactosidase enzyme inhibitors and activators, dose response, artefact control for CCR6 antagonist project, biochemical, E. coli enzyme, set 3 (AID 504712); format: functional
Beta-galactosidase, sequence (Q8VNN2 whole entry): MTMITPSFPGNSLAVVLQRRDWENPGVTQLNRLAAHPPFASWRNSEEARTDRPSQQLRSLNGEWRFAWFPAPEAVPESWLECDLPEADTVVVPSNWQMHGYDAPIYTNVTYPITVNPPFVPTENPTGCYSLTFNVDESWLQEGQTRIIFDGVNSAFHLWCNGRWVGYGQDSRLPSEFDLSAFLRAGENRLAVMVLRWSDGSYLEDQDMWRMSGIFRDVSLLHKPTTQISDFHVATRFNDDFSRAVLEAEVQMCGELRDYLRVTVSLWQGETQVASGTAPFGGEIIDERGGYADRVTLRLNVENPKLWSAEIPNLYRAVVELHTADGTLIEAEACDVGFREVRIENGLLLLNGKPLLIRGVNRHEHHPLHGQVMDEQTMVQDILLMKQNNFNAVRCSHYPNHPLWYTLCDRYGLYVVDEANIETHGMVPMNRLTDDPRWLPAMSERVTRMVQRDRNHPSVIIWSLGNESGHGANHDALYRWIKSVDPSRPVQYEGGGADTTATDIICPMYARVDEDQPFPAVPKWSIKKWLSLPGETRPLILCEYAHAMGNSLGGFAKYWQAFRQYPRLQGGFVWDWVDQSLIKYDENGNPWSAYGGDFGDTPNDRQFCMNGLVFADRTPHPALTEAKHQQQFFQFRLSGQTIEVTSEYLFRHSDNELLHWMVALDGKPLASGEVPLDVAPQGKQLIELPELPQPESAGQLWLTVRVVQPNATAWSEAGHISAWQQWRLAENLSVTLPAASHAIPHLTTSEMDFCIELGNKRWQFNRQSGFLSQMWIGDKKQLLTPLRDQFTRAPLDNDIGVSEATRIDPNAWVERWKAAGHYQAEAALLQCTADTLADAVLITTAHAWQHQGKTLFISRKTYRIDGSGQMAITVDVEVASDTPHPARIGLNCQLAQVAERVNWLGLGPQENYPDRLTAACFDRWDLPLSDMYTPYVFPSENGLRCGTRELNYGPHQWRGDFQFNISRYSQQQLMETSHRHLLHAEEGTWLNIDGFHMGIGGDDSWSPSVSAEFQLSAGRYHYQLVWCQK

[8] = target: Eukaryotic translation initiation factor 4E (Mus musculus, UniProt P63073); assay: eIF4E–eIF4G protein interaction inhibitors, dose response, biochemical, TR-FRET (AID 855); format: functional;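 further: potency for disrupting eIF4E binding to eIF4GI seen as loss of FRET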
Eukaryotic translation initiation factor 4E, sequence (P63073 whole entry): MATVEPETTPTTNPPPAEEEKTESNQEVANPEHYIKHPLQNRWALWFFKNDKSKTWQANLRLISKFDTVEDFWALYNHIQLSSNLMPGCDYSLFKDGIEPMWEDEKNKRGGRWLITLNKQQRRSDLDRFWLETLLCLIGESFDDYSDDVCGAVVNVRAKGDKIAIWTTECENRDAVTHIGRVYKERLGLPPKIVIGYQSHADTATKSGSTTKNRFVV

Nonstructural protein 1 = Nonstructural protein 1 (Influenza A virus, UniProt Q194T2); format: functional, Influenza A virus (A/California/07/2009(H1N1))
Nonstructural protein 1, sequence (Q194T2 whole entry): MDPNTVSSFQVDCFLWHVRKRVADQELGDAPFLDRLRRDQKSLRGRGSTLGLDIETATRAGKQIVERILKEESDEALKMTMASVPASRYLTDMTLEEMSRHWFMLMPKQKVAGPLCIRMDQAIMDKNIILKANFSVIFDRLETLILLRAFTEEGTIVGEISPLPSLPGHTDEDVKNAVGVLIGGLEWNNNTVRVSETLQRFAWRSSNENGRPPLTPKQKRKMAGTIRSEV

Hexokinase HKDC1 = target: T2, Hexokinase HKDC1 (Homo sapiens, UniProt Q2TB90); assay: HKDC1 hexokinase inhibitors, dose response, biochemical, W721R variant (AID 504729); format: functional
T2 sequence (Q2TB90 whole entry): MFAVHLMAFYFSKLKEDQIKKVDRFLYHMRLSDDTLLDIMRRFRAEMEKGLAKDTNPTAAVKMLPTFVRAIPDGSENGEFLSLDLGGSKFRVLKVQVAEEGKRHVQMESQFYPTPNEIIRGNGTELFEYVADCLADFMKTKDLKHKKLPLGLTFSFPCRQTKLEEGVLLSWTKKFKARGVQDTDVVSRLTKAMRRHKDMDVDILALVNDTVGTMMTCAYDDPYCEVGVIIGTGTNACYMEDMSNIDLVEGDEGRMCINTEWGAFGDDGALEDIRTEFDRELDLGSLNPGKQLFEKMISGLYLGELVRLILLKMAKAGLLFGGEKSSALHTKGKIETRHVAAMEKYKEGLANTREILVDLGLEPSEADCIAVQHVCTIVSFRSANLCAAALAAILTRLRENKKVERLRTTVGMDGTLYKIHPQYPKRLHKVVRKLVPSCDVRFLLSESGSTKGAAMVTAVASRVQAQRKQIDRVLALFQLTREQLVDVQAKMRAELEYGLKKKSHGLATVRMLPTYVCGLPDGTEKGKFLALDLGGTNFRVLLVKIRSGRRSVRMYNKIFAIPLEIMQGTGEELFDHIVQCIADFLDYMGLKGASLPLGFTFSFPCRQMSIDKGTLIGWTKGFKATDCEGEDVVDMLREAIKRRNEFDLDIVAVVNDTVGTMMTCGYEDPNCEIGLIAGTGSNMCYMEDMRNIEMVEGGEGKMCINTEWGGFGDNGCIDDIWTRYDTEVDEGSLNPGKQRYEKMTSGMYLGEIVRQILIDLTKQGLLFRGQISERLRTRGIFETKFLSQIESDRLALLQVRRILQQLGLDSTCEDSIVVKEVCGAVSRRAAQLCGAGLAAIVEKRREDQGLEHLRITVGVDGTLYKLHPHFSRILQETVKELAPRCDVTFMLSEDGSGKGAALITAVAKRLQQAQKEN

[9] = target: T3, Replicative DNA helicase DnaB (Mycobacterium tuberculosis, UniProt P9WMR3); assay: DnaB intein splicing inhibitors, dose response, biochemical, cell-free fluorescence (AID 449749); format: functional
T3 sequence (P9WMR3 whole entry): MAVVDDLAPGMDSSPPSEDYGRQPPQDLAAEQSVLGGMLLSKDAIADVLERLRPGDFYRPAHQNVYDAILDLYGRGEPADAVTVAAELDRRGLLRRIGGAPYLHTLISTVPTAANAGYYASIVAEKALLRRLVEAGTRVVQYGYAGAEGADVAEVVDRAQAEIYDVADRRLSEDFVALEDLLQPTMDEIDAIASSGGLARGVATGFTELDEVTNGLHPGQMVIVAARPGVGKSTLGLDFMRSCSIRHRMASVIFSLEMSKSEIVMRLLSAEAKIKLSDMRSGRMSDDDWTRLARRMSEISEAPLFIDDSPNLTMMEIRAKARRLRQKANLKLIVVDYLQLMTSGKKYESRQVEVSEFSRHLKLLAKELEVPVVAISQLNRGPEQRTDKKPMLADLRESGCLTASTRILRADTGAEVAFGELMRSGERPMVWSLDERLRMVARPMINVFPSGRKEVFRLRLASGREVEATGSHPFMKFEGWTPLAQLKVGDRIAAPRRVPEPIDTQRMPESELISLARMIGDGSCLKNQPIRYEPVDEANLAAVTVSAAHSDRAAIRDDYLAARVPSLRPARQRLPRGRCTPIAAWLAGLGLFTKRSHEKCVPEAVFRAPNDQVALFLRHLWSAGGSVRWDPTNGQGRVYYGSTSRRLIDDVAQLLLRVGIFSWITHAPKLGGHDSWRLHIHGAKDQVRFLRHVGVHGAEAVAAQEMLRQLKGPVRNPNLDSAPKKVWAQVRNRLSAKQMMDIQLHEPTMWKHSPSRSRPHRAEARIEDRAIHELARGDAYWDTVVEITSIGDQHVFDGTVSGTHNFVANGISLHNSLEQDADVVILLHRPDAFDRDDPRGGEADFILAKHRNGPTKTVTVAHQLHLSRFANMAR

Protein RecA = target: T4, Protein RecA (Mycobacterium tuberculosis, UniProt P9WHJ3); assay: Fluorescence Cell-Free Homogeneous Dose Retest to Identify Inhibitors of RecA-Intein Splicing Activity. [Related pubchem assays (depositor defined):AID2097, AID2223, AID489010, AID492950]; format: functional
T4 sequence (P9WHJ3 whole entry): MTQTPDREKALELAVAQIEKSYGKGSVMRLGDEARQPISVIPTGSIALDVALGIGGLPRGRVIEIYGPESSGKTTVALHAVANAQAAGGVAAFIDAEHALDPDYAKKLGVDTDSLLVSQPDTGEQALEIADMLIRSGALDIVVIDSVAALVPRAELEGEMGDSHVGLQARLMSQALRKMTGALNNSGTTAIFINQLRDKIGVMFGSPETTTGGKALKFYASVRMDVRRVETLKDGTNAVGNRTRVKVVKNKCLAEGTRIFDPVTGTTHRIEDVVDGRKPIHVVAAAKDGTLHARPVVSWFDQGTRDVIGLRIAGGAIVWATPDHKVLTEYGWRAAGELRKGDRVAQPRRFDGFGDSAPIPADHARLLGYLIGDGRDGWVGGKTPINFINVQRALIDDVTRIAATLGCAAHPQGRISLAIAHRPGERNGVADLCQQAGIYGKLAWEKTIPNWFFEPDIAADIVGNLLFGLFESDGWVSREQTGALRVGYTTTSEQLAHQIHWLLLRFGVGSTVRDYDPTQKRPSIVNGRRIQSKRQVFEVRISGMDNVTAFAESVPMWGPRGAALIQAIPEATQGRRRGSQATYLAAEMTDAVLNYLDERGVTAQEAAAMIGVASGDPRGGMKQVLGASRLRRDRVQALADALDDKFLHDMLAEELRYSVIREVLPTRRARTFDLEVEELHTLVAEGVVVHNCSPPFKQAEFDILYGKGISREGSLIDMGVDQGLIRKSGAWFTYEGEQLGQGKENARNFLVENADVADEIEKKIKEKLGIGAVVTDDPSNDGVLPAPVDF

Beta-arrestin-1 = Beta-arrestin-1 (Homo sapiens, UniProt P49407); assay: inhibitors of arrestin peptide binding to AP2, dose response, biochemical, cherry pick 1, beta2-adaptin appendage, flow cytometry (AID 588783); format: functional
Beta-arrestin-1, sequence (P49407 whole entry): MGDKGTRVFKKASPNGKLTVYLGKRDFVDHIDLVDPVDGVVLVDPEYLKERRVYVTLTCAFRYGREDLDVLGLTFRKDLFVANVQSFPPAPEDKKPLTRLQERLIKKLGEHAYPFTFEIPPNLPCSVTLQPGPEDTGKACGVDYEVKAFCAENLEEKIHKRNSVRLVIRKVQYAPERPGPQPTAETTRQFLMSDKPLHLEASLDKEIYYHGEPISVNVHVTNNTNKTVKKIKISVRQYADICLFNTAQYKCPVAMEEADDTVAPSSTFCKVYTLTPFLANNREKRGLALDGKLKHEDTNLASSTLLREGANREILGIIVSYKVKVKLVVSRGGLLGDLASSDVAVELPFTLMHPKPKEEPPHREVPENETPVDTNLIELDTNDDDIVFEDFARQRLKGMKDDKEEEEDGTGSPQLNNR

Protein Tat = target: T5, Protein Tat (Human immunodeficiency virus type 1 group M subtype B (isolate HXB2)(HIV-1), UniProt P04608); format: functional;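 further: tat binding to TAR RNA read out by fluorescence polarization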
T5 sequence (P04608 whole entry): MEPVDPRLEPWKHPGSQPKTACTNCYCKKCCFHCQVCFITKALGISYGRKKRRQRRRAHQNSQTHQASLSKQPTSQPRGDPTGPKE

DNA topoisomerase, sequence (A0A2S9PM60 whole entry): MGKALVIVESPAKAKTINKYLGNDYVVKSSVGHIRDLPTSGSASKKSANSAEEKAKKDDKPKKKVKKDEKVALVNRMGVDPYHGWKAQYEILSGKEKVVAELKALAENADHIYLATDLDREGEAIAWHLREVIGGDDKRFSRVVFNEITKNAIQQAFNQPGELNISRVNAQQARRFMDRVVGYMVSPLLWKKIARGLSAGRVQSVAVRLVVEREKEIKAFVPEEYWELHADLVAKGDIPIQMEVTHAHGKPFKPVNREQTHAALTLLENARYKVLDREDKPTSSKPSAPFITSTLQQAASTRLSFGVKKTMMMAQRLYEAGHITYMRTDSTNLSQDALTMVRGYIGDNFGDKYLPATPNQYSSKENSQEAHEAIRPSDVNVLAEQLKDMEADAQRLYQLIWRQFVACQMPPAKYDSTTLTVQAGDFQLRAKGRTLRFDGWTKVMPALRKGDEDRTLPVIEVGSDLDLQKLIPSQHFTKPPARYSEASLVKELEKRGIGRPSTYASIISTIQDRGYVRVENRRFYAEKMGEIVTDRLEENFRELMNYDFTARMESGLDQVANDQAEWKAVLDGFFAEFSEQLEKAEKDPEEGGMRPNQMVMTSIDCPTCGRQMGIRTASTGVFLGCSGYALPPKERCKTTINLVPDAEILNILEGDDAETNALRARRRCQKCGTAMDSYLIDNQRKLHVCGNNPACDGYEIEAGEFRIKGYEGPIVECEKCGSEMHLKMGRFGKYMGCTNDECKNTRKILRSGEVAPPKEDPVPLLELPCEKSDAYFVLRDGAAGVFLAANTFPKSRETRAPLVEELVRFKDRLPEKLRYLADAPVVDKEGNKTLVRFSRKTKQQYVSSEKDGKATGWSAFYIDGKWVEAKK

## O=C(Nc1ccn(CCCN(CCCn2ccc(NC(=O)OCc3ccccc3)nc2=O)CCc2cc3ccccc3[nH]2)c(=O)n1)OCc1ccccc1
DNA topoisomerase
  AC50: 2.54 µM (active)
[1]
  IC50: 15.9 µM (active)
[2]
  IC50: 40.7 µM (active)

## Cc1ccn2c(C(=O)c3ccc(Cl)cc3)cnc2c1
HeLa
  AC50: 37 µM (active)

## O=C1C(Cl)=C(N2CCCCC2)C(=O)C(Cl)=C1c1cnc(N2CCCCC2)s1
[3]
  EC50: 2.42 µM (active)
[4]
  EC50: 4.4 µM (active)
[5]
  EC50: 3.45 µM (active)
HT-1080
  EC50: 45.9 µM (active)
[6]
  EC50: 2.75 µM (active)
[7]
  IC50: > 66.6 µM (inactive)
Beta-galactosidase
  IC50: > 66.6 µM (inactive)
[8]
  IC50: > 64 µM (inactive)
Nonstructural protein 1
  IC50: 21.4 µM (active)
Hexokinase HKDC1
  IC50: 11.4 µM (active)
[9]
  AC50: > 380 µM (inactive)
Protein RecA
  EC50: 0.766 µM (active)
Beta-arrestin-1
  IC50: 14.1 µM (active)
Protein Tat
  IC50: 1.99 µM (inconclusive)
